Reference: patent US12133846B2, “Electrophilic androgen receptor (AR) antagonists for AR downregulation and ferroptosis induction in cancer cells” (priority 2019, dated 2024)

Columns and labels:
FL AR and AR-V7 = biological target: T1, FL AR and AR-V7 (Homo sapiens, UniProt P10275); test: Western blotting of FL AR and AR-V7 in VCaP cells; type: cell-based; settings: full media, 16 h, 2-63, 12b 5 and 15 μM, Enz 10 μM, SAHA 1 μM
T1 construct: Whole cell lysates were subjected to Western blotting and probed with the indicated antibodies; endogenous in cells; host or cells: VCaP
T1 sequence (P10275 1-920): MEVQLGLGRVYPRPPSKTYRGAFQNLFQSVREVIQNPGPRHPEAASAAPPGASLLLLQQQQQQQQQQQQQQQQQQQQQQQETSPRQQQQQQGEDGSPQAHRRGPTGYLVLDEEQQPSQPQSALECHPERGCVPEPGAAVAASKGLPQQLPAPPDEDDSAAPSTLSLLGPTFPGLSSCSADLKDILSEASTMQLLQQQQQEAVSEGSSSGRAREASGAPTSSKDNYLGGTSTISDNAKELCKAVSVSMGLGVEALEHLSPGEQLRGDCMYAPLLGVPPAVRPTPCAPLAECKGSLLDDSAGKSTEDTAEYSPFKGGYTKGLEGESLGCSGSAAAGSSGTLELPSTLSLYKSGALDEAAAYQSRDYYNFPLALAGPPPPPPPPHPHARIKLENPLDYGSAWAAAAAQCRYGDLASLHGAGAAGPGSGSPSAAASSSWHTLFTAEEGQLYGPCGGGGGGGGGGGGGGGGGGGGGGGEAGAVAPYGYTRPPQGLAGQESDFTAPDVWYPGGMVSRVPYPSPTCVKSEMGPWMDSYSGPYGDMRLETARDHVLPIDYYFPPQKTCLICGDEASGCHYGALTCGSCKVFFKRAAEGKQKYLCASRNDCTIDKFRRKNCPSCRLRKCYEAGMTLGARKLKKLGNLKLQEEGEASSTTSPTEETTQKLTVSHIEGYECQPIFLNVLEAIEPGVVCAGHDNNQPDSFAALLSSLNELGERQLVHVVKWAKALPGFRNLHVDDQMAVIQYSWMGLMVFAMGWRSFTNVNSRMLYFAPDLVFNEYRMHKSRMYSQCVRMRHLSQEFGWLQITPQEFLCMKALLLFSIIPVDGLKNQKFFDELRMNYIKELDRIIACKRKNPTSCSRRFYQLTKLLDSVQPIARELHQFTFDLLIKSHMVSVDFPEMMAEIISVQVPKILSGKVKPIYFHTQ
Procedure: (§1) Western Blotting. […] Proteins in cell lysates (40 μg) were separated using electrophoresis on SDS-PAGE and transferred onto PVDF (polyvinylidenedifluoride) membranes. Membranes were blocked in 5% fat-free milk followed by incubation with primary antibodies overnight at 4° C., and the secondary horseradish peroxidase-conjugated anti-rabbit or anti-mouse antibodies. The blots were developed in the Enhanced Chemiluminescence mixture and detected by ImageQuant™ LAS 4000 imaging system (GE). Density of protein bonds were calculated and analyzed by using imageJ software downloaded from the National Institute of Health website.

Sp1 and c-Myc = test: Western blotting of transcription factors in VCaP cells; type: cell-based; settings: 5.0 and 10 μM, 24 h
Procedure: FL AR is a client protein of Hsp90, and AR-V7 might be chaperoned by Hsps other than Hsp90 (Moses, et al., Cancer Res. 2018, 78, 4022-4035). Because Hsp70 upregulation is an indicator of heat shock protein disruption (Kitson, et al., Nat. Chem. 2013, 5, 307-314) that causes client protein degradation, it was assessed whether 2-63 could change the protein stability of AR and AR-V7. […] 2-63-induced AR/AR-V7 downregulation was partially rescued by the proteasome inhibitor MG-132 (data not shown). This supports the involvement of proteasome degradation in AR reduction. Besides the posttranslational mechanisms, AR downregulation could also be caused by suppressing transcription factors (TFs) that drive the transcription of the AR gene. Sp1 and c-Myc were selected as representatives that could be affected by 2-63. Multiple Sp1 binding sites are located near the transcriptional initiation region of the AR gene.
Western Blotting. […] The protein concentration of supernatants was determined using the Pierce BCA Protein Assay Kit (Thermo Fisher, Cat #23225). […] The blots were developed in the Enhanced Chemiluminescence mixture and detected by ImageQuant™ LAS 4000 imaging system (GE). Density of protein bonds were calculated and analyzed by using imageJ software downloaded from the National Institute of Health website.

22Rv1 cells [1] = test: Colony formation assay, 22Rv1 cells; type: cell-based; settings: 2-63 1 μM plus BSO 5 μM, 24 h, then drug-free medium 11 days
Procedure: (§2) Colony formation assay. Cells (22Rv1 or C4-2) were seeded in six-well plates (1,000/well) and cultured overnight. Cells were then treated with 2-63 (1 μM in 22Rv1; 2.5 μM in C4-2), BSO (5 μM) alone or in combination for 24 h. Cells were washed and cultured in a drug-free medium (22Rv1, 11 days; C4-2, 8 days). On the last day, the medium was removed, cells were washed with PBS and fixed with methanol. The colonies were stained with crystal violet solution for 3 h at room temperature and air-dried.

C4-2 cells [2] = test: Colony formation assay, C4-2 cells; type: cell-based; settings: 2-63 2.5 μM plus BSO 5 μM, 24 h, then drug-free medium 8 days
Procedure: as §2

AR-V7, Hsp70, HO-1 = test: Western blotting under BSO combination, 22Rv1 cells; type: cell-based; settings: 2-63 2.5 μM plus BSO 100 μM, 24 h
Procedure: It was first investigated if iron chelators or antioxidants could rescue the viability of drug combination-treated cells. […] HO-1 catalyzes the decomposition of heme into carbon monoxide, biliverdin, and Fe^2+. […] Both Fer-1 and the lipophilic antioxidant α-Toc can effectively scavenge radicals in phosphatidylcholine lipid bilayers and break the redox cycle that generates lipid hydroperoxide.
as §1

C4-2 cells [3] = settings: 5 μM, DHT 1 nM, charcoal stripped FBS, 6 days
Procedure: The medium and drug were refreshed every two days.
The anti-PCa potential of 2-63 was further characterized by assessing its inhibitory effects on DHT-stimulated C4-2 cell growth. […] C4-2 cells were cultured in charcoal-stripped, steroid-free medium and cells were stimulated with androgen.

22Rv1 cells [4] = test: BSO pretreatment plus drug, MTT viability, 22Rv1 cells
Procedure: Cell viability was then assessed using an MTT assay.
PCa cells (6×10^3 cells/well) were seeded into 96-well plates overnight and then treated with indicated compounds at indicated concentrations and time durations. The MTT (3-(4, 5-Dimethylthiazol-2-yl)-2,5-diphenyltetrazolium bromide) assay was performed according to the standard protocol. Briefly, MTT (0.5 mg/mL) was incubated with cells at 37° C. for 3 hours. Supernatant was removed, followed by the addition of dimethyl DMSO (100 μl). After incubation for 30 minutes at 37° C., absorbance was read at 570 nm on a microplate reader.

SMILES: CC(=O)N[C@H](CSC(=S)NCCCCCCc1ccc(N2C(=S)N(c3ccc(C#N)c(C(F)(F)F)c3)C(=O)C2(C)C)cn1)C(=O)O [2-63, N-acetyl-S-((6-(5-(3-(4-cyano-3-(trifluoromethyl)phenyl)-5,5-dimethyl-4-oxo-2-thioxoimidazolidin-1-yl)pyridine-2-yl)hexyl)carbamothioyl)-D-cysteine]
- FL AR expression (FL AR and AR-V7): dose-dependently decreased
- Sp1 and c-Myc protein level (Sp1 and c-Myc): dose-dependently reduced
- colony formation of 22Rv1 cells (22Rv1 cells [1]): very efficiently suppressed colony formation
- colony formation of C4-2 cells (C4-2 cells [2]): very efficiently suppressed colony formation
- AR-V7 expression, 22Rv1 cells (AR-V7, Hsp70, HO-1): effectively depletes AR-V7
- viability reduction of DHT-stimulated C4-2 cells (C4-2 cells [3]): 70%
- combinatorial effect with BSO (interaction index), 22Rv1 (22Rv1 cells [4]; BSO 2.5-10 μM 16 h pretreatment, then 2-63 1-10 μM 24 h, synergism = index <0.8): synergistically reduced viability
- cytotoxicity at 5 µM (22Rv1 cells [4]; Homo sapiens, 22Rv1, 24 h, read-out: viability reduction, 22Rv1 cells): 65%
